Source: US20200024246A1, “POGOSTONE DERIVATIVES AND METHODS OF USING THE SAME” (Hamyard Associates LLC, priority 2018, published 2020)
“Also recorded” adds a separate entry of the source.

Key:
adult female mosquitoes = experiment: whole plant or invertebrate; conditions: topical
Experimental: The first group of DHAA-based derivatives that were tested included Formula A2, Formula B3, Formula C3, and Formula D3. A solution of 0.5% or 1.5% of each of these compounds was applied to the mosquitoes, as described above. […] Acetone was used as a control.

[1] = tested on: Western corn rootworm larvae; experiment: Seed treatment testing: rootworm survival (FIG. 2A); assay type: in vivo; conditions: seeds coated with compound; 1 week after introduction of larvae
Experimental: Corn seeds used were a non-transgenic type strain of corn to prevent confounding results. Germination typically occurred between 2-4 days after moistening.
Seed coating was accomplished by placing 20 g of corn seeds or soybeans into a container with approximately 1 mL of a 1:5 Elmer's glue:water solution with a small amount of Triton-X100™ (present 100 μL/5 mL). For solid compounds, 0.25 g of compound was subsequently introduced into the container. This mixture of seeds, Elmer's Glue/water/Triton-X 100™ solution, and active compound was mixed thoroughly until seeds were coated with the active ingredient.
For each treatment, 0.25 g of liquid compound was dissolved in 5 mL of hexane. 0.25 g of Hi-Sil 233 silica gel was introduced into this mixture of hexane and active ingredient. The solvent was blown-off using a rotary evaporator, allowing for the compound to adsorb to the silica gel. This 0.5 g of silica gel:active ingredient was then used as the solid material used for coating the seeds. The seeds were then coated with the same method used for solid compound.
Three corn seeds coated in pogostone derivative treatments were germinated in small, 2-oz. […] Germination of seedlings was also recorded at the end of the assay by counting the total number of seeds that produced roots out of the 3 seeds in each container/replicate and recorded as total percentage germination. […]

soybean aphids = experiment: Leaf spray/dip test, soybean aphids (FIG. 4a); assay type: in vivo, soybean aphid; conditions: soybean aphids on dipped soybean leaves, 48 hours
Experimental: Soybean leaves were removed from a previously uninfested plant and dipped in solution containing water, various concentrations of compounds to be screened, and 0.5% industrial emulsifier. Leaves were allowed to air dry for 30 minutes before the beginning of the assay to assure excess formulation was not present on the treated leaves. Ten two-spotted spider mites or ten soybean aphid adults were gently placed on the top surface of the treated leaves. A minimum of three replicates were performed for each formulation tested in this experiment. Mortality of aphids or spider mites was recorded at 48 hours after their introduction to treated leaves. All treatments were compared to a water+emulsifier control and a thymol+emulsifier control. Data was presented as the average mortality across all replicates along with the standard error of the mean.

adult, female mosquitoes = experiment: Topical application on adult female mosquitoes (24-h mortality, 1-h knockdown); assay type: in vivo, mosquito
house flies [2] = experiment: Spray-cup testing, house flies (FIG. 3a); assay type: in vivo, house fly; conditions: Formula 13 2.5% w/v in water vs thymol 2.5% or 10% w/v
Experimental: (§1) 10 adults of various arthropod species used for this characterization were placed into 8 oz. ice cream cups with tulle placed over the top to prevent the escape of arthropods from the container. Test formulations were added to spray bottles ([…]™) and applied at the same distance and spray number to eliminate variation between manufacturer spray bottles. For all experiments, spray bottles were set to mist in order to prevent excess formulation from accumulating in the cups. […] Mortality was recorded at 1 min, 5 min, 10 min, 15 min, 30 min, 4 hours, and 8 hours for each replicate. A minimum of 3 replicates of 10 arthropods/cup/replicate were performed for each formulation. Data was modeled using a logarithmic regression to show the speed-to-kill of each formulation and highlight differences among treatment groups. Different spray amounts were used for each arthropod, depending on susceptibility, e.g.:
House flies=8 sprays, 3 in […]

maize weevils = experiment: Spray-cup testing, maize weevils (FIG. 3c); assay type: in vivo, maize weevil; conditions: Formula 13 2.5% w/v in water vs thymol 2.5% or 10% w/v
Experimental: as §1
Maize weevils=8 sprays, 3 in […]

house flies [3] = experiment: Topical application on house flies; conditions: House Fly Toxicity; topical
adult house flies = experiment: Topical application of pogostone derivatives with PBO or plant essential oil on house flies; assay type: in vivo, house fly; conditions: house flies
Experimental: Combinations of select pogostone derivatives with select concentrations of PBO or plant essential oils was performed. […] Synergists were applied as a subsequent application directly after the application of pogostone derivatives. Concentrations of synergists (plant oils or PBO) were chosen that produced no mortality at 24 hours when applied alone.
To assess the ability of PBO to increase the toxicity of a wide variety of pogostone derivatives, PBO and the pogostone derivatives were applied in combination to the pronotum of house flies.
Finally, the potential of plant essential oils to synergize the effect of Formula 30 was assessed.

[4] = tested on: 3-4 instar Aedes aegypti larvae; experiment: Mosquito larvicide bioassay; assay type: in vivo
Experimental: Mosquito larvicide bioassays were performed by introducing various concentrations of test compounds (pyrone derivatives and rotenone) into acetone at various concentrations. 200 uL of these solutions were added to individual cups containing 10, 3-4 instar Aedes aegypti larvae and 25 mL of DI water. 2 mg of Tetramin™ was provided to each cup as a food source. […] Ataxia was used as the indicator of larval mortality. At least 5 concentrations were used which caused between 10 and 90% mortality. LC50 values were calculated using a PROC PROBIT model in SAS 9.4.

[5] = tested on: Pyrethroid-resistant strain of Aedes aegypti (Puerto Rican strain); experiment: Toxicity to insecticide-resistant mosquitoes (FIG. 1); conditions: dose response curves FIG. 1
German roaches = experiment: Spray-cup testing, German roaches (FIG. 3b); assay type: in vivo, German roach; conditions: Formula 13 2.5% w/v in water vs thymol 2.5% or 10% w/v
Experimental: as §1
German roaches=10 sprays, 3 in […]

[6] = tested on: two-spotted spider mites, soybean aphids, maize weevils, German cockroaches, and European corn borers; experiment: Screen of Formula 13 against other arthropod pest species; assay type: in vivo; conditions: words

In the case of `CC(C)CCC(=O)c1c(O)c2ccccc2oc1=O` [Formula 13], the “1-hour Knockdown EC50 (μg/g mosquito)” value (adult female mosquitoes; mosquito, 1 hour) is reported as 182 μg/g mosquito, the LD50 (adult female mosquitoes; 24 h, read-out: 24-hour Mortality LD50 (μg/g mosquito)) is reported as 119 mg/kg and the “western corn rootworm mortality” value [1] is reported as “significant western corn rootworm mortality”. For the same molecule, the “mortality compared with thymol or control” value (soybean aphids) was “performed better than thymol; also recorded: significantly more effective at killing soybean aphids compared to thymol or a control”, the ED50 (adult, female mosquitoes; topical, 1 h, read-out: KD50 (ug/g mosquito)) was 182 mg/kg and the LD50 (adult, female mosquitoes; topical, 24 h, read-out: LD50 (ug/g mosquito)) was 119 mg/kg. The “insecticidal properties compared with natural pogostone, natural pyrethrins or terpenoids” value (adult, female mosquitoes; words, refers to Table 1) was “possessed better insecticidal properties than natural pogostone”, the “efficacy (mortality) compared with thymol” value (house flies [2]) was “outperformed thymol at all time points; also recorded: surpassed the efficacy of thymol at both an equal or higher concentration” and the “efficacy (mortality) compared with thymol” value (maize weevils) was “outperformed thymol at all time points; also recorded: performed better than thymol applied at an equal concentration and as well as thymol applied in a 10% concentration”. The “LD50 (ug/g fly)” value (house flies [3]) was 5950 ug/g fly, the “SR (synergistic ratio)” value (adult house flies; LD50 alone versus in combination with PBO) was 17.8 and the “LD50” value (adult house flies; topical, derivative alone or in combination with PBO) was 5950 µg/g. The LC50 ([4]; Aedes aegypti, larval mortality at 24 hours, in 25 mL DI water, read-out: LC50) was 1.34 µg/mL, the “larvicidal properties compared with natural pogostone or rotenone” value ([4]; words) was “possessed better larvicidal properties than natural pogostone; also recorded: possessed better larvicidal properties than rotenone; also recorded: performed as well as the rotenone” and the “insecticidal capacity compared with natural pyrethrins” value [5] was “outperformed natural pyrethrins”. For the same molecule, the “efficacy (mortality) compared with thymol” value (German roaches) was “outperformed thymol at all time points; also recorded: surpassed the efficacy of thymol at both an equal or higher concentration” and the “toxicity compared with thymol” value [6] was “more toxic than a commonly used natural insecticide, thymol”.
